Reference: patent US6828304B1, “Peptides for treatment of cancer” (Dabur Research Foundation, priority 2000, dated 2004)
Peptide text beside a SMILES is read from it. * marks the point of attachment. Palmitoyl = CCCCCCCCCCCCCCCC(=O)*; Myristoyl = CCCCCCCCCCCCCC(=O)*

What was measured:
Conditions in all cases: 48 hours
[1] = tested on: KB (Oral squamous) tumor cells; assay: MTT cytotoxicity assay, KB cells; format: cell-based
Excerpt: (§1) The cytotoxic effect of Lipo peptide analogs, DT-A1 (SEQ ID NO: 2), DT-B1 (SEQ ID NO: 3), DT-01 (SEQ ID NO: 4), DT-M1 (SEQ ID NO: 5) and DT-P1 (SEQ ID NO: 6) was studied by MTT assay which is based on the principle of uptake of MTT [3-[4,5-dimethylthiazol-2-yl]-2,5-diphenyl tetrazolium bromide], a tetrazolium salt by the metabolically active cells where it is metabolized by active mitochondria into a blue colored formazan product which can be read spectrophotometrically. Briefly, tumor cells PTC (primary colon) KB (Oral squamous), U87MG (Glioblastoma), HBL100 (Breast), HeP2 (Laryngeal), ECV304 (Endothelial), PA-1 (Ovary) and L132 (Lung) were incubated with the peptide analogs for 48 hours at 37° C. in a 96-well culture plate, followed by the addition of 100 μg MTT and _further incubation of 1 hour. The formazan crystals formed inside the cells were dissolved with a detergent comprising 10% Sodium dodecyl sulfate and 0.01 N HCl and optical density read on a multiscan ELISA reader. The optical density was directly proportional to the number of proliferating and metabolically active cells.

[2] = tested on: U87MG (Glioblastoma) tumor cells; assay: MTT cytotoxicity assay, U87MG cells; format: cell-based
Excerpt: as §1

[3] = tested on: HBL100 (Breast) tumor cells; assay: MTT cytotoxicity assay, HBL100 cells; format: cell-based
Excerpt: as §1

[4] = tested on: HeP2 (Laryngeal) tumor cells; assay: MTT cytotoxicity assay, HeP2 cells; format: cell-based
Excerpt: as §1

L132 (Lung) tumor cells = assay: MTT cytotoxicity assay, L132 cells; format: cell-based
Excerpt: as §1

PA-1 (Ovary) tumor cells = assay: MTT cytotoxicity assay, PA-1 cells; format: cell-based
Excerpt: as §1

[5] = tested on: ECV304 (Endothelial) cells; assay: MTT cytotoxicity assay, ECV304 cells; format: cell-based
Excerpt: as §1

[6] = tested on: PTC (primary colon) tumor cells; assay: MTT cytotoxicity assay, PTC cells; format: cell-based, human
Excerpt: as §1

In the case of “Ac-LMYPTYLK-OH [DT-A1, Acetyl-Leu-Met-Tyr-Pro-Thr-Tyr-Leu-Lys-OH]”, the Percentage cytotoxicity ([1]; 1 nM) is reported as 25.9 ± 1.6%, the Percentage cytotoxicity ([1]; 10 nM) is reported as 31.0 ± 2.1% and the Percentage cytotoxicity ([1]; 100 nM) is reported as 26.9 ± 2.1%. The Percentage cytotoxicity ([1]; 1 μM) was 21.0 ± 2.3%, the Percentage cytotoxicity ([2]; 1 nM) was 10.4 ± 1.3% and the Percentage cytotoxicity ([2]; 10 nM) was 29.9 ± 2.2%. For the same compound, the Percentage cytotoxicity ([2]; 100 nM) was 26.9 ± 1.5%, the Percentage cytotoxicity ([2]; 1 μM) was 21.9 ± 1.4% and the Percentage cytotoxicity ([3]; 1 nM) was 19.9 ± 3.5%. For the same compound, the Percentage cytotoxicity ([3]; 10 nM) was 31.9 ± 3.5%, the Percentage cytotoxicity ([3]; 100 nM) was 30.5 ± 1.3% and the Percentage cytotoxicity ([3]; 1 μM) was 28.9 ± 1.2%. For the same compound, the Percentage cytotoxicity ([4]; 1 nM) was 14.9 ± 2.2%, the Percentage cytotoxicity ([4]; 10 nM) was 39.9 ± 1.8% and the Percentage cytotoxicity ([4]; 100 nM) was 21.9 ± 2.7%. The Percentage cytotoxicity ([4]; 1 μM) was 19.7 ± 1.1%, the Percentage cytotoxicity (L132 (Lung) tumor cells; 1 nM) was 13.9 ± 2.9% and the Percentage cytotoxicity (L132 (Lung) tumor cells; 10 nM) was 26.4 ± 3.2%. The Percentage cytotoxicity (L132 (Lung) tumor cells; 100 nM) was 14.6 ± 3.1%, the Percentage cytotoxicity (L132 (Lung) tumor cells; 1 μM) was 12.9 ± 2.4% and the Percentage cytotoxicity (PA-1 (Ovary) tumor cells; 1 nM) was 21.9 ± 1.5%. For the same compound, the Percentage cytotoxicity (PA-1 (Ovary) tumor cells; 10 nM) was 24.9 ± 2.6%, the Percentage cytotoxicity (PA-1 (Ovary) tumor cells; 100 nM) was 18.5 ± 2.3% and the Percentage cytotoxicity (PA-1 (Ovary) tumor cells; 1 μM) was 6.9 ± 3.2%. It also gave a Percentage cytotoxicity ([5]; 1 nM) of 8.0 ± 2.5%, a Percentage cytotoxicity ([5]; 10 nM) of 16.5 ± 3.4% and a Percentage cytotoxicity ([5]; 100 nM) of 22.0 ± 2.3%. For the same compound, the Percentage cytotoxicity ([5]; 1 μM) was 10.8 ± 3.4%.
“Palmitoyl-Leu-Met-Tyr-Pro-Thr-Tyr-Leu-Lys-OH (Palmitoyl-LMYPTYLK-OH) [DT-P1]” gave a Percentage cytotoxicity ([6]; 1 nM) of 27 ± 3.1%, a Percentage cytotoxicity ([6]; 10 nM) of 21 ± 1.2% and a Percentage cytotoxicity ([6]; 100 nM) of 33 ± 1.1%. The Percentage cytotoxicity ([6]; 1 μM) was 31 ± 3.1%, the Percentage cytotoxicity ([1]; 1 nM) was 21.9 ± 2.6% and the Percentage cytotoxicity ([1]; 10 nM) was 32.0 ± 2.1%. For the same compound, the Percentage cytotoxicity ([1]; 100 nM) was 23.0 ± 2.2%, the Percentage cytotoxicity ([1]; 1 μM) was 18.0 ± 2.6% and the Percentage cytotoxicity ([2]; 1 nM) was 9.6 ± 1.8%. For the same compound, the Percentage cytotoxicity ([2]; 10 nM) was 34.0 ± 2.6%, the Percentage cytotoxicity ([2]; 100 nM) was 32.9 ± 2.5% and the Percentage cytotoxicity ([2]; 1 μM) was 18.4 ± 2.4%. The Percentage cytotoxicity ([3]; 1 nM) was 25.7 ± 2.5%, the Percentage cytotoxicity ([3]; 10 nM) was 34.9 ± 3.6% and the Percentage cytotoxicity ([3]; 100 nM) was 33.3 ± 1.4%. For the same compound, the Percentage cytotoxicity ([3]; 1 μM) was 28.9 ± 1.3%, the Percentage cytotoxicity ([4]; 1 nM) was 13.9 ± 1.2% and the Percentage cytotoxicity ([4]; 10 nM) was 24.9 ± 2.8%. It also gave a Percentage cytotoxicity ([4]; 100 nM) of 28.9 ± 1.7%, a Percentage cytotoxicity ([4]; 1 μM) of 14.9 ± 1.3% and a Percentage cytotoxicity (L132 (Lung) tumor cells; 1 nM) of 10.9 ± 1.9%. The Percentage cytotoxicity (L132 (Lung) tumor cells; 10 nM) was 29.0 ± 1.2%, the Percentage cytotoxicity (L132 (Lung) tumor cells; 100 nM) was 19.6 ± 1.1% and the Percentage cytotoxicity (L132 (Lung) tumor cells; 1 μM) was 17.8 ± 2.2%. For the same compound, the Percentage cytotoxicity (PA-1 (Ovary) tumor cells; 1 nM) was 20.5 ± 1.9%, the Percentage cytotoxicity (PA-1 (Ovary) tumor cells; 10 nM) was 21.9 ± 2.2% and the Percentage cytotoxicity (PA-1 (Ovary) tumor cells; 100 nM) was 25.6 ± 3.3%. It also gave a Percentage cytotoxicity (PA-1 (Ovary) tumor cells; 1 μM) of 21.7 ± 2.2%, a Percentage cytotoxicity ([5]; 1 nM) of 18.8 ± 2.6% and a Percentage cytotoxicity ([5]; 10 nM) of 19.9 ± 3.4%. It also gave a Percentage cytotoxicity ([5]; 100 nM) of 31.9 ± 1.3% and a Percentage cytotoxicity ([5]; 1 μM) of 25.9 ± 1.4%.
Compound `CCCCCCCCCCCCCC(=O)N[C@@H](CC(C)C)C(=O)N[C@@H](CCSC)C(=O)N[C@@H](Cc1ccc(O)cc1)C(=O)N1CCC[C@H]1C(=O)N[C@H](C(=O)N[C@@H](Cc1ccc(O)cc1)C(=O)N[C@@H](CC(C)C)C(=O)N[C@@H](CCCCN)C(=O)O)[C@@H](C)O` [DT-M1, Myristoyl-Leu-Met-Tyr-Pro-Thr-Tyr-Leu-Lys-OH] (Myristoyl-LMYPTYLK-OH) has a Percentage cytotoxicity ([6]; 1 nM) of 26 ± 0.5%, a Percentage cytotoxicity ([6]; 10 nM) of 25 ± 3.6% and a Percentage cytotoxicity ([6]; 100 nM) of 31 ± 4.6%. For the same compound, the Percentage cytotoxicity ([6]; 1 μM) was 30 ± 3.9%, the Percentage cytotoxicity ([1]; 1 nM) was 21.0 ± 26% and the Percentage cytotoxicity ([1]; 10 nM) was 23.9 ± 3.1%. The Percentage cytotoxicity ([1]; 100 nM) was 19.0 ± 3.2%, the Percentage cytotoxicity ([1]; 1 μM) was 12.9 ± 1.6% and the Percentage cytotoxicity ([2]; 1 nM) was 29.4 ± 1.2%. The Percentage cytotoxicity ([2]; 10 nM) was 44.9 ± 2.7%, the Percentage cytotoxicity ([2]; 100 nM) was 32.2 ± 2.2% and the Percentage cytotoxicity ([2]; 1 μM) was 5.0 ± 2.5%. The Percentage cytotoxicity ([3]; 1 nM) was 21.9 ± 2.4%, the Percentage cytotoxicity ([3]; 10 nM) was 31.6 ± 3.8% and the Percentage cytotoxicity ([3]; 100 nM) was 30.4 ± 2.4%. For the same compound, the Percentage cytotoxicity ([3]; 1 μM) was 29.6 ± 2.3%, the Percentage cytotoxicity ([4]; 1 nM) was 15.8 ± 2.2% and the Percentage cytotoxicity ([4]; 10 nM) was 18.7 ± 2.2%. The Percentage cytotoxicity ([4]; 100 nM) was 22.9 ± 1.3%, the Percentage cytotoxicity ([4]; 1 μM) was 12.9 ± 1.2% and the Percentage cytotoxicity (L132 (Lung) tumor cells; 1 nM) was 10.6 ± 1.9%. The Percentage cytotoxicity (L132 (Lung) tumor cells; 10 nM) was 26.7 ± 1.1%, the Percentage cytotoxicity (L132 (Lung) tumor cells; 100 nM) was 16.8 ± 2.1% and the Percentage cytotoxicity (L132 (Lung) tumor cells; 1 μM) was 9.6 ± 2.4%. It also gave a Percentage cytotoxicity (PA-1 (Ovary) tumor cells; 1 nM) of 27.5 ± 2.9%, a Percentage cytotoxicity (PA-1 (Ovary) tumor cells; 10 nM) of 42.0 ± 2.2% and a Percentage cytotoxicity (PA-1 (Ovary) tumor cells; 100 nM) of 25.9 ± 3.3%. It also gave a Percentage cytotoxicity (PA-1 (Ovary) tumor cells; 1 μM) of 15.7 ± 1.2%, a Percentage cytotoxicity ([5]; 1 nM) of 21.9 ± 1.6% and a Percentage cytotoxicity ([5]; 10 nM) of 16.9 ± 3.1%. It also gave a Percentage cytotoxicity ([5]; 100 nM) of 22.9 ± 1.0% and a Percentage cytotoxicity ([5]; 1 μM) of 17.7 ± 1.2%.
